According to ChEMBL document CHEMBL4334471, “Discovery of 1,8-disubstituted-[1,2,3]triazolo[4,5-c]quinoline derivatives as a new class of Hippo signaling pathway inhibitors” (Bioorg Med Chem Lett, 2019):

Columns and labels:
[1] = system: Tyrosine-protein kinase ABL1 (Homo sapiens), P00519 [Q252H]; assay: Inhibition of human ABL1 Q252H mutant (27 to end residues) assessed as residual activity at 10 uM using EAIYAAPFAKKK as substrate incubated for 40 mins in presence of [gamma-33ATP] by scintillation counting based radiometry assay relative to control
[2] = target: Serine/threonine-protein kinase D3 (Homo sapiens) (UniProt O94806); assay: Inhibition of recombinant full-length human PKD3 assessed as residual activity at 10 uM using KKLNRTLSVA as substrate incubated for 40 mins in presence of [gamma33P]ATP by scintillation counting based radiometry assay relative to control
Serine/threonine-protein kinase D3 (Homo sapiens), sequence (O94806 whole entry): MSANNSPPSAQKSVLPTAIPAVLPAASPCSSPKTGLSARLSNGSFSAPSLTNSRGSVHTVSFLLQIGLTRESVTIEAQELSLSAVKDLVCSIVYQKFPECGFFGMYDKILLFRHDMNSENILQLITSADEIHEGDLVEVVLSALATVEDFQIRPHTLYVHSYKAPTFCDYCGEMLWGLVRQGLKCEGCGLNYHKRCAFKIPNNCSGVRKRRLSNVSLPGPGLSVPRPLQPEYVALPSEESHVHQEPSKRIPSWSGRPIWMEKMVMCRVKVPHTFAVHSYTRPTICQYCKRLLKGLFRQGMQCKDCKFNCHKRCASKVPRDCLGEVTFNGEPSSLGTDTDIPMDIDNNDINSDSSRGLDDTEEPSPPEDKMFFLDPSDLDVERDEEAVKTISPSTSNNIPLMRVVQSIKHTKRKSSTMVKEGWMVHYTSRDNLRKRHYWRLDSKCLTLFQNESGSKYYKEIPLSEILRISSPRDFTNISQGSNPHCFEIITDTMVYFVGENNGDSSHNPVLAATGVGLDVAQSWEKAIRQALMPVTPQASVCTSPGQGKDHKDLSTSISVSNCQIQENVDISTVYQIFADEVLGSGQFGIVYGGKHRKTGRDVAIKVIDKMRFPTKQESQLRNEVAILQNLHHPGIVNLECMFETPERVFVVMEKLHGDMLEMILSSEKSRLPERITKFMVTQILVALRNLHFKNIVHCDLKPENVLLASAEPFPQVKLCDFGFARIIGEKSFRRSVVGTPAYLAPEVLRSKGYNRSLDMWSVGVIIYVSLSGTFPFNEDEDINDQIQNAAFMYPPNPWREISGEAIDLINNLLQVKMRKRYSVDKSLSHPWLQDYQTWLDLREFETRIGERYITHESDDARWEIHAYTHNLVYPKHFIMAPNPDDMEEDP

A549 = assay: Inhibition of hippo signalling protein in human A549 cells cotransfected with CTGF promoter-driven firefly luciferase and CMV promoter-driven renilla luciferase gene assessed as increase in CTGF expression at 10 uM incubated for 24 hrs by dual-luciferase gene assay relative to control
Mus musculus [3] = species on record: Mus musculus; assay: Inhibition of mouse MAPK2 assessed as residual activity at 10 uM relative to control
[4] = target: FKBP12A/mTOR (Homo sapiens) (UniProt P62942+P42345); assay: Inhibition of recombinant full length human mTOR/FKBP12 assessed as residual activity at 10 uM measured after 40 mins in presence of [gamma33P]ATP by scintillation counting based radiometry assay relative to control; assay type: protein-complex assay
FKBP12A/mTOR (Homo sapiens), sequence (P62942 2-108 limits assumed, other chains not shown): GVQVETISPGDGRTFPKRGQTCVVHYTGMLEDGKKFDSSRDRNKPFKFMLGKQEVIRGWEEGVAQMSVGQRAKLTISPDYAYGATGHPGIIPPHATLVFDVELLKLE

[5] = system: Dual specificity protein kinase TTK (Homo sapiens), P33981 [S389A]; assay: Inhibition of recombinant full-length human TTK S389A mutant assessed as residual activity at 10 uM using MBP as substrate incubated for 40 mins in presence of [gamma33P]ATP by scintillation counting based radiometry assay relative to control
[6] = target: Dual specificity mitogen-activated protein kinase kinase 1 (Homo sapiens) (UniProt Q02750); assay: Inhibition of recombinant human MEK1 assessed as residual activity at 10 uM using inactive MAPK2 as substrate incubated for 40 mins in presence of [gamma-33ATP by scintillation counting based radiometry assay relative to control
[7] = target: Beta-adrenergic receptor kinase 1 (Homo sapiens) (UniProt P25098); assay: Inhibition of recombinant full length human GRK2 assessed as residual activity at 10 uM using casein as substrate at 40 mins in presence of [gamma-33ATP] by scintillation counting based radiometry assay relative to control
Beta-adrenergic receptor kinase 1 (Homo sapiens), sequence (P25098 whole entry): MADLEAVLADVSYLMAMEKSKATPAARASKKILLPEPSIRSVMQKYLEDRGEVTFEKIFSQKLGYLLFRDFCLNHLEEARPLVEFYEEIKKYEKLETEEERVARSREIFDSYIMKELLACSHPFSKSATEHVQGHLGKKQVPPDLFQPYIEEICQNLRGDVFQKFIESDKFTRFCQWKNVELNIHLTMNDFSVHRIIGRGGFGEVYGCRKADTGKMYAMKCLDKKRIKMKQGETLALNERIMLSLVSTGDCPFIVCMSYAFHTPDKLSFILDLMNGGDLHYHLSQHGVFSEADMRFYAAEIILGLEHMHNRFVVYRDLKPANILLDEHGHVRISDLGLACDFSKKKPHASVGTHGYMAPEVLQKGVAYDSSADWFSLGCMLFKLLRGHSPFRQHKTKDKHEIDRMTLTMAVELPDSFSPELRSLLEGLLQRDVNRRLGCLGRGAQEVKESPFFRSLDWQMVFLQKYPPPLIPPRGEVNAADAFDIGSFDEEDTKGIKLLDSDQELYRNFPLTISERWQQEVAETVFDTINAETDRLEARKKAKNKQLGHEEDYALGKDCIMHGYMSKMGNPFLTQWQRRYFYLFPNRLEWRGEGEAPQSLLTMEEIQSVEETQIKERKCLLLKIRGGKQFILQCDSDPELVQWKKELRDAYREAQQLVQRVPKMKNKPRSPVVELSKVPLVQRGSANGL

[8] = system: Receptor-type tyrosine-protein kinase FLT3 (Homo sapiens), P36888 [D835Y]; assay: Inhibition of recombinant human FLT3 D835Y mutant (564 to end residues) assessed as residual activity at 10 uM using EAIYAAPFAKKK as substrate at 40 mins in presence of [gamma-33ATP] by scintillation counting based radiometry assay relative to control
[9] = target: Death-associated protein kinase 1 (Homo sapiens) (UniProt P53355); assay: Inhibition of recombinant human DAPK1 (1 to 296 residues) assessed as residual activity at 10 uM KKLNRTLSFAEPG as substrate incubated 40 mins in presence of [gamma-33ATP] by scintillation counting based radiometry assay relative to control
Death-associated protein kinase 1 (Homo sapiens), sequence (P53355 whole entry, looked up, the tested form may be a part): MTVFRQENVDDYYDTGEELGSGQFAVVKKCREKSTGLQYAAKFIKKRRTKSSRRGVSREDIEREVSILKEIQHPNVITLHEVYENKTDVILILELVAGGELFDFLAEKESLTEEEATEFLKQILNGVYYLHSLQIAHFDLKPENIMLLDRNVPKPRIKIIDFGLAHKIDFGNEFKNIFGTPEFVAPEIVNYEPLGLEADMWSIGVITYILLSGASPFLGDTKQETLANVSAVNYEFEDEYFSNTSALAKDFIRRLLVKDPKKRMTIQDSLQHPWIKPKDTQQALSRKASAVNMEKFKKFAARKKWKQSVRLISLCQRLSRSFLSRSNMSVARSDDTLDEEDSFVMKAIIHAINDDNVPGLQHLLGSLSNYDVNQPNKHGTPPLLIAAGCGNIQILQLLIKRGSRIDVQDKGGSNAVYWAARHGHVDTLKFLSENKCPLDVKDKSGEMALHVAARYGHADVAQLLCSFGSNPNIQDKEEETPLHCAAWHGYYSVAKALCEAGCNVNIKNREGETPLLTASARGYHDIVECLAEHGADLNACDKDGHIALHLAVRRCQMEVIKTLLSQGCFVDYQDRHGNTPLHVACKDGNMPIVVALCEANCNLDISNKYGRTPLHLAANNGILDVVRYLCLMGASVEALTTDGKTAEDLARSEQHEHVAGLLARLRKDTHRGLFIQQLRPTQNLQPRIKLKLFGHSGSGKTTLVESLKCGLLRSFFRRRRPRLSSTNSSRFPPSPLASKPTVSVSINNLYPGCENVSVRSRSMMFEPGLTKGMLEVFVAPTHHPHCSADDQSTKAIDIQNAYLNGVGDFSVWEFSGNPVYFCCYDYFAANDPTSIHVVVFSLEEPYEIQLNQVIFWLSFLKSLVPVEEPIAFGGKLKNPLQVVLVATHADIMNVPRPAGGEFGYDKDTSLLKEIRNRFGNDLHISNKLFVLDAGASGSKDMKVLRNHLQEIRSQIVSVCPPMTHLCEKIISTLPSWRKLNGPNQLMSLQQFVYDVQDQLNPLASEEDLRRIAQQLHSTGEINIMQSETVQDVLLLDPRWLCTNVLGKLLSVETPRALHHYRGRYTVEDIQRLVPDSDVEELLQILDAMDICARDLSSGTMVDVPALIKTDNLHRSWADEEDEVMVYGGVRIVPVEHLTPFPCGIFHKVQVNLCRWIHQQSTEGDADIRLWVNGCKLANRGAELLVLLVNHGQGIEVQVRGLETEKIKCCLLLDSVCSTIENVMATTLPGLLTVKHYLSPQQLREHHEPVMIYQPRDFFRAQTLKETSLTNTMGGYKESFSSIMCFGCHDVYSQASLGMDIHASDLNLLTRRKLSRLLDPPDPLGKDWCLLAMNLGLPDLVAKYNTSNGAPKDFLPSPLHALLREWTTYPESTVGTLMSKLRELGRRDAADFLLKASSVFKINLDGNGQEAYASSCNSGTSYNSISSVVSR

[10] = target: Serine/threonine-protein kinase PLK3 (Homo sapiens) (UniProt Q9H4B4); assay: Inhibition of recombinant human Plk3 (19 to 301 residues) assessed as residual activity at 10 uM using casein as substrate incubated for 40 mins in presence of [gamma33P]ATP by scintillation counting based radiometry assay relative to control
Serine/threonine-protein kinase PLK3 (Homo sapiens), sequence (Q9H4B4 whole entry, looked up, the tested form may be a part): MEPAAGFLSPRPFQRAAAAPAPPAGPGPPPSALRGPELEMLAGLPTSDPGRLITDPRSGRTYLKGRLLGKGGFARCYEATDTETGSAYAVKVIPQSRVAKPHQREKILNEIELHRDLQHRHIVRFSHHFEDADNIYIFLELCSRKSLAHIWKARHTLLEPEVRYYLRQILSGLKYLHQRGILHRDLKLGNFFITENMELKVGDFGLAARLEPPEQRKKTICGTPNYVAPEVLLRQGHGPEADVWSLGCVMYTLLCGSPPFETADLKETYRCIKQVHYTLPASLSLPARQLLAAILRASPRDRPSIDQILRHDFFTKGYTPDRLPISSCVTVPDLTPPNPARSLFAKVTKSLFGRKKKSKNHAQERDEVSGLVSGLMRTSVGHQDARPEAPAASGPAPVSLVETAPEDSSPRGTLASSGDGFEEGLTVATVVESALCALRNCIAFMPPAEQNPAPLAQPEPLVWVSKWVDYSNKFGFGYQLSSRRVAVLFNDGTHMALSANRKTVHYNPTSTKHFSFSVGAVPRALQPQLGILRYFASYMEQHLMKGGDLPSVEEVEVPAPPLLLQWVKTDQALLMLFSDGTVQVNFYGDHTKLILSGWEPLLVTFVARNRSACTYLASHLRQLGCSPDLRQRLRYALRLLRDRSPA

[11] = system: Hepatocyte growth factor receptor (Homo sapiens), P08581 [Y1230H]; assay: Inhibition of recombinant human MET A1209G/V1290L/Y1248H mutant (974 to end residues) assessed as residual activity at 10 uM using KKKGQEEEYVFIE as substrate incubated for 40 mins in presence of [gamma-33ATP by scintillation counting based radiometry assay relative to control
Mus musculus [12] = species on record: Mus musculus; assay: Inhibition of mouse Arg M982V/A562 mutant (27 to end residues) assessed as residual activity at 10 uM using EAIYAAPFAKKK as substrate incubated for 40 mins in presence of [gamma-33ATP] by scintillation counting based radiometry assay relative to control
[13] = target: Dual specificity protein kinase CLK2 (Homo sapiens) (UniProt P49760); assay: Inhibition of recombinant human CLK2 (138 to end residues) assessed as residual activity at 10 uM using YRRAAVPPSPSLSRHSSPHQS(p)EDEEE as substrate incubated 40 mins in presence of [gamma-33ATP] by scintillation counting based radiometry assay relative to control
[14] = system: Fibroblast growth factor receptor 1 (Homo sapiens), P11362 [V561M]; assay: Inhibition of recombinant human FGFR1 V561M mutant (456 to 765 residues) assessed as residual activity at 10 uM using KKKSPGEYVNIEF as substrate at 40 mins in presence of [gamma-33ATP] by scintillation counting based radiometry assay relative to control
Fibroblast growth factor receptor 1 (Homo sapiens), P11362 [V561M], sequence (P11362 whole entry V561M, the tested form may be a part): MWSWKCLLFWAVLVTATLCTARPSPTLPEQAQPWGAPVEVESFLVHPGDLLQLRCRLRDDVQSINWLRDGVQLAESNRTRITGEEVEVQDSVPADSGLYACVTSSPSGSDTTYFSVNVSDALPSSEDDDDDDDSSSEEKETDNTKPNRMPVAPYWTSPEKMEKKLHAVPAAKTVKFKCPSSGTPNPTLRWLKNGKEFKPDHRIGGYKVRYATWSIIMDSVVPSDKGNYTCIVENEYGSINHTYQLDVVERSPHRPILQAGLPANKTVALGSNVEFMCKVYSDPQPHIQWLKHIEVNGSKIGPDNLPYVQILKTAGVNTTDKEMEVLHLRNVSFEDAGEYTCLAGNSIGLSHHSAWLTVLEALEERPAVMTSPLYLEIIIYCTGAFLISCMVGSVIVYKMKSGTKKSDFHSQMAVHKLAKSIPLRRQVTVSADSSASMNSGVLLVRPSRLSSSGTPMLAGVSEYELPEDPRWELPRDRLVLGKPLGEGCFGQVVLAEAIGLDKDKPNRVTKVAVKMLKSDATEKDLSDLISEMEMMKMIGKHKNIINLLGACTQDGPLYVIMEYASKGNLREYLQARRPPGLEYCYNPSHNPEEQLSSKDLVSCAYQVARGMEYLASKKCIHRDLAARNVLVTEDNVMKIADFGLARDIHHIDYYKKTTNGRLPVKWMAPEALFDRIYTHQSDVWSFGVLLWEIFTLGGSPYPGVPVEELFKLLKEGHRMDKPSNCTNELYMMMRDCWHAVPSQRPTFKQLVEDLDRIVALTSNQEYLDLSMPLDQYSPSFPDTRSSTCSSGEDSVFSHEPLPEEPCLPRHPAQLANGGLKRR

[15] = target: Cyclin-dependent kinase-like 1 (Homo sapiens) (UniProt Q00532); assay: Inhibition of recombinant full length human CDKL1 assessed as residual activity at 10 uM using RRRFRPASPLRGP as substrate incubated for 120 mins in presence of [gamma-33ATP] by scintillation counting based radiometry assay relative to control
Cyclin-dependent kinase-like 1 (Homo sapiens), sequence (Q00532 whole entry): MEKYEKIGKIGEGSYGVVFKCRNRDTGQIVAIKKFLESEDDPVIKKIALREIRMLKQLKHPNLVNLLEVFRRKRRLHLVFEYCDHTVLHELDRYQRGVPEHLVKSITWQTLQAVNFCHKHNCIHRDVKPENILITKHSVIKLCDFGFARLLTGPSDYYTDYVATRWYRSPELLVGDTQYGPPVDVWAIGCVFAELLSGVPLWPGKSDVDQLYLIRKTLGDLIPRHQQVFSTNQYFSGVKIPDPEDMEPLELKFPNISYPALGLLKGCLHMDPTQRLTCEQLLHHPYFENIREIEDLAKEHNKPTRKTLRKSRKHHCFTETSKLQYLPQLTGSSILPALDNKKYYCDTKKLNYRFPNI

[16] = system: Mast/stem cell growth factor receptor Kit (Homo sapiens), P10721 [D816V]; assay: Inhibition of recombinant human C-Kit D816V mutant (544 to end residues) assessed as residual activity at 10 uM poly(Glu, Tyr) 4:1 as substrate incubated 40 mins in presence of [gamma-33ATP] by scintillation counting based radiometry assay relative to control
[17] = target: Dual specificity tyrosine-phosphorylation-regulated kinase 2 (Homo sapiens) (UniProt Q92630); assay: Inhibition of recombinant human DYRK2 assessed as residual activity at 10 uM using casein as substrate at 40 mins in presence of [gamma-33ATP] by scintillation counting based radiometry assay relative to control
Homo sapiens = species on record: Homo sapiens; assay: Inhibition of human MAPK2 assessed as residual activity at 10 uM relative to control
[18] = target: Serine/threonine-protein kinase BRSK1 (Homo sapiens) (UniProt Q8TDC3); assay: Inhibition of recombinant human BRSK1 ( 2 to end residues) assessed as residual activity at 10 uM using KKKVSRSGLYRSPSMPENLNRPR substrate incubated for 40 mins in presence of [gamma-33ATP] by scintillation counting based radiometry assay relative to control
[19] = target: Serine-protein kinase ATM (Homo sapiens) (UniProt Q13315); assay: Inhibition of recombinant full-length human ATM assessed as residual activity at 10 uM using GST-cMyc-p53 as substrate measured after 40 mins by ELISA relative to control
[20] = target: CDC7/Cyclin B1 (Homo sapiens) (UniProt P14635+O00311); assay: Inhibition of recombinant full length human CD7/CyclinB1 assessed as residual activity at 10 uM using Histone H1 as substrate incubated for 40 mins in presence of [gamma-33ATP] by scintillation counting based radiometry assay relative to control; assay type: protein-complex assay

C[C@@H](c1ccccc1)n1nnc2cnc3ccc(-c4cnc5[nH]ccc5c4)cc3c21
Activity [1]: 1%
Activity [2]: 53%
fold change (FC) (A549): 13.5
Activity (Mus musculus [3]): 100%
Activity [4]: -1%
Activity [5]: 2%
Activity [6]: 85%
Activity [7]: 92%
Activity [8]: 42%
Activity [9]: 84%
Activity [10]: 71%
Activity [11]: 79%
Activity (Mus musculus [12]): -1%
Activity [13]: 30%
Activity [14]: 22%
Activity [15]: 79%
Activity [16]: 86%
Activity [17]: 94%
Activity (Homo sapiens): 93%
Activity [18]: 36%
Activity [19]: 0%
Activity [20]: 63%
